Assay results reported in patent publication US11160871B2, “SSTR-targeted conjugates and particles and formulations thereof” (TARVEDA THERAPEUTICS, INC., priority 2015, dated 2021).
Read-outs that look alike come from different tables or passages of the source. Starred links: 1 amine or outer side, 2 acyl side, 3 side chain; linkers in the order of their positions; H or OH if unused. Positions of bridges follow the written chain, without caps; N, C: chain ends. Non-standard residues stand in square brackets, D forms with d. Residues, ends and D or L forms follow the SMILES beside them. *: point of attachment. X1 = COc1cc2cc(c1Cl)N(C)C(=O)C[C@H](OC(=O)[C@H](C)N(C)C(=O)CCS*)[C@]1(C)O[C@H]1[C@H](C)[C@@H]1C[C@@](O)(NC(=O)O1)[C@H](OC)/C=C/C=C(\C)C2; N(3-sulfanylpropyl)dPhe = O=C([C@@H](Cc1ccccc1)N(CCCS[*:3])[*:1])[*:2]

Experiments:
[1] = test system: NCI-H69 SCLC tumors; assay: H69 tumor DM-1 levels by LC/MS-MS; format: in vivo, mice; details: 1 mg/kg; 24 hour time point
Protocol: (§1) To examine the ability of conjugates of the present invention to accumulate in tumors, a murine cancer model was used. All mice were treated in accordance with the OLAW Public Health Service Policy on Human Care and Use of Laboratory Animals and the ILAR Guide for the Care and Use of Laboratory Animals. All in vivo studies were conducted following the protocols approved by the Blend Therapeutics Institutional Animal Care and Use Committee. Animals were inoculated with 2.5×10^6 NCI-H69 SCLC (small cell lung cancer) cells in 1:1 RPMI 1640 (Invitrogen, Carlsbad, Calif.)/Matrigel® (BD Biosciences, San Jose, Calif.) via subcutaneous injection to the right flank. Tumors were allowed to reach an approximate volume of ˜500 mm3. Animals were then randomized into treatment groups of 3 animals per time point and were dosed at 1 mg/kg (10% propylene glycol in water for injection for free conjugates, or 10% sucrose for nanoparticles), or 0.4 mg/kg for DM-1 (10% propylene glycol in water for injection). The 24 hour time point was used as a benchmark across conjugates.
(§2) Tumor DM-1 levels were determined by liquid chromatography mass spectrometry (LC/MS-MS). Four volumes of 5 mM 6-maleimidohexanoic acid to 1 part tumor v/w was added and homogenized for about 10-15 seconds with a handheld homogenizer. 10 μL of 500 mM Tris(2-carboxyethyl)phosphine was added to 100 uL of tumor homogenate, mixed well and incubated at room temperature for about 5-15 min. 200-300 uL of acetonitrile was used to precipitate proteins in tumor homogenate, samples were centrifuged for 5 min, and supernatant was injected onto LC/MS-MS system for DM-1 analysis.

[2] = test system: NCI-H524 human small cell lung cancer cells; assay: cells; format: cell-based
Protocol: Conjugates of the present invention were assessed in an in vitro assay evaluating inhibition of cell proliferation. NCI-H524 (ATCC) human small cell lung cancer cells were plated in 96 well, V-bottomed plates (Costar) at a concentration of 5,000 cells/well. 24 hours later, cells were treated with either conjugate for 2 hours and further incubated 70 hours, or for octreotide competition experiments, treated with 100 μM octreotide for 30 min, and then treated with conjugate for 2 hours, and further incubated for 70 hours. Conjugate starting dose was 20 μM and three fold serial dilutions were done for a total of ten points. After 2 hours of treatment, cells were spun down, the drug containing media was removed, and fresh complete medium was added and used to resuspend the cells, which were spun again. After removal of the wash media, the cells were resuspended in complete medium, and then transferred into white walled, flat bottomed 96 well plates. […] Proliferation was measured using CellTiter Glo reagent using the standard protocol (Promega) and a Glomax multi+ detection system (Promega). Percent proliferation inhibition was calculated using the following formula: % inhibition=(control−treatment)/control*100. Control is defined as vehicle alone. IC50 curves were generated using the nonlinear regression analysis (four parameter) with GraphPad Prism 6.

[3] = H69 tumor DM-1 levels by LC/MS-MS; format: in vivo, mice; details: mouse, tumor (NCI-H69 SCLC xenograft); 0.4 mg/kg for DM-1; 24 hour time point
Protocol: as §1, §2

[4] = Single dose exploratory toxicity study; format: in vivo, SD female rat; details: 0.4 mg/kg
Protocol: Single dose exploratory toxicity studies in SD female rat (dose 0.5 mg/kg to 1.5 mg/kg) for 7-10 days were carried out. Clinical observations, body weight, clinical blood chemistry, histopathology, and complete blood counts were assessed. In the 10-day study, DM1 (0.4 mg/kg) was compared to Conjugate 57 at an equivalent dose of DM1 (1.0 mg/kg of conjugate) and at a 50% higher dose (1.5 mg/kg of conjugate).
Decreased white blood cell (WBC) count is a known dose limiting toxicity of DM1. WBC count was tracked in all groups.
Liver toxicity is also a know dose limiting toxicity of DM1. Alanine transaminase (ALT) and aspartate aminotransferase (AST) are markers of liver toxicity and were measured in all groups.

[5] = molecular target: SSTR1 (Homo sapiens, UniProt P30872); details: read-out: Octreoscan Ki; cited from earlier work
SSTR1, sequence (P30872 whole entry): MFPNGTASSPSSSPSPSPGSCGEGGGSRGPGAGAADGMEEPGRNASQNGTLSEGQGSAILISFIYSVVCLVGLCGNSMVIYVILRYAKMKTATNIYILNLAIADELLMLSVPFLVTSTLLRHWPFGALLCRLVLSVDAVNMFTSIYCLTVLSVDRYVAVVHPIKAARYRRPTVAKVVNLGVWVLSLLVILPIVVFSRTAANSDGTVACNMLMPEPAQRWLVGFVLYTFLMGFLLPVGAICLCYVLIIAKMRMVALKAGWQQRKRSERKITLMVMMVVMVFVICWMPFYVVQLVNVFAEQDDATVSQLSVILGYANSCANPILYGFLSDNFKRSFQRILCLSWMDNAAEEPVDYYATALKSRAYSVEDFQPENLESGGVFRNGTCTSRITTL

[6] = molecular target: SSTR3 (Homo sapiens, UniProt P32745); details: read-out: Octreoscan Ki; cited from earlier work
SSTR3, sequence (P32745 whole entry): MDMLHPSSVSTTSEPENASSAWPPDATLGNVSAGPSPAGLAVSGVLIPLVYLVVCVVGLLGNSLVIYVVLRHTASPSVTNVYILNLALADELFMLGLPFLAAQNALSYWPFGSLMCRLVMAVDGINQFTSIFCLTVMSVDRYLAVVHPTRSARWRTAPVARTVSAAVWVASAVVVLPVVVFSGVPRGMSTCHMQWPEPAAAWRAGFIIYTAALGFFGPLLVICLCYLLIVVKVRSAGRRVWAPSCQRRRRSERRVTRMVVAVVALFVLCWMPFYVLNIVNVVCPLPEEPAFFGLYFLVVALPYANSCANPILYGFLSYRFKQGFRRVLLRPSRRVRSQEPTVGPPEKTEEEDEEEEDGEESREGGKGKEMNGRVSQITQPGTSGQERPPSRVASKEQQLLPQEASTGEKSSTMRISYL

[7] = molecular target: SSTR4 (Homo sapiens, UniProt P31391); details: read-out: Octreoscan Ki; cited from earlier work
SSTR4, sequence (P31391 whole entry): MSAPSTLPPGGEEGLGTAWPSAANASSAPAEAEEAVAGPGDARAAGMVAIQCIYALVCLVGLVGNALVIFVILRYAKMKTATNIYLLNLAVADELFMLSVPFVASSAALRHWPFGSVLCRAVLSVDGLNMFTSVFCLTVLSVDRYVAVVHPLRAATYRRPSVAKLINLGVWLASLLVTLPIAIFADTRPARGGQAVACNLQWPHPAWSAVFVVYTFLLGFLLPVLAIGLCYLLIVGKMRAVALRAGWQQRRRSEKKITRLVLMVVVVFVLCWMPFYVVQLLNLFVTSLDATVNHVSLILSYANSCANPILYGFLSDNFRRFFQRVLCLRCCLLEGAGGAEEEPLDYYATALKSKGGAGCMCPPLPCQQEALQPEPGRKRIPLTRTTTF

[8] = molecular target: SSTR5 (Homo sapiens, UniProt P35346); details: read-out: Octreoscan Ki; cited from earlier work
SSTR5, sequence (P35346 whole entry): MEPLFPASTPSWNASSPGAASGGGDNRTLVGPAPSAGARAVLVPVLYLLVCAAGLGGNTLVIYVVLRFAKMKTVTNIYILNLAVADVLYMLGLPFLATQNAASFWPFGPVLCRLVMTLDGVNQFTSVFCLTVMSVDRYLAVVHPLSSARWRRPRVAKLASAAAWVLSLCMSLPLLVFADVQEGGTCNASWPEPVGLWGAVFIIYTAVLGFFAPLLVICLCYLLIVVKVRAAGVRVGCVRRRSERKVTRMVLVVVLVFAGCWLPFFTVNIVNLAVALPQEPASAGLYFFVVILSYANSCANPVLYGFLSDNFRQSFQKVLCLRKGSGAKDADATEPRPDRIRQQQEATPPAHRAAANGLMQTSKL

[9] = molecular target: SSTR2 (Homo sapiens, UniProt P30874); set-up: expressed in transfected cells; details: read-out: Octreoscan Ki; cited from earlier work
SSTR2, sequence (P30874 whole entry): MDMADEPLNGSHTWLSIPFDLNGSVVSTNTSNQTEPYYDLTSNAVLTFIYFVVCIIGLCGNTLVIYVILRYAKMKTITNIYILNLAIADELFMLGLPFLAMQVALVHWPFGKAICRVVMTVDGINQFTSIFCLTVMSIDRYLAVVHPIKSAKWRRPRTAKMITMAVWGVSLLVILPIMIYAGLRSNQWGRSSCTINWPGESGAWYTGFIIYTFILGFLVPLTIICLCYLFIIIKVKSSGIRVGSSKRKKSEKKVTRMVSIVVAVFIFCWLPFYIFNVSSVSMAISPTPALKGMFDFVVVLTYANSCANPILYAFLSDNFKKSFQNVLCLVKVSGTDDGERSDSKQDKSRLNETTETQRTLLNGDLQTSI

COc1cc2cc(c1Cl)N(C)C(=O)C[C@H](OC(=O)[C@H](C)N(C)C(=O)CCSSC[C@H](NC(=O)CC[C@H]1C(=O)N[C@@H](Cc3ccc(O)cc3)C(=O)N[C@H](Cc3c[nH]c4ccccc34)C(=O)N[C@@H](CCCCN)C(=O)N[C@@H]([C@@H](C)O)C(=O)N[C@@H](Cc3ccccc3)C(=O)N1C)C(=O)NC(C)(C)CC(C)(C)C)[C@]1(C)O[C@H]1[C@H](C)[C@@H]1C[C@@](O)(NC(=O)O1)[C@H](OC)/C=C/C=C(\C)C2 [Conjugate 16]
H69 tumor DM-1 levels [1]: 96.4 nM

COc1cc2cc(c1Cl)N(C)C(=O)C[C@H](OC(=O)C(C)N(C)C(=O)CCSSCCC(=O)NCCCOCCOCCOCCCNC(=O)CC[C@H]1C(=O)N[C@@H](Cc3ccc(O)cc3)C(=O)N[C@H](Cc3c[nH]c4ccccc34)C(=O)N[C@@H](CCCCN)C(=O)N[C@@H]([C@@H](C)O)C(=O)N[C@@H](Cc3ccccc3)C(=O)N1C)[C@]1(C)O[C@H]1[C@H](C)[C@@H]1C[C@@](O)(NC(=O)O1)[C@H](OC)/C=C/C=C(\C)C2 (stereo partly drawn) [Conjugate 18]
IC50 ([2]; 2 hours treatment, 70 hours further incubation, read-out: H524 IC50): 1480 nM | IC50 ([2]; read-out: H524 IC50+ 100 uM octreotide, 100 μM octreotide for 30 min before conjugate): 2160 nM | H69 tumor DM-1 levels [1]: 86.3 nM

CCCCN(CCSSCCC(=O)N(C)[C@@H](C)C(=O)O[C@H]1CC(=O)N(C)c2cc(cc(OC)c2Cl)C/C(C)=C/C=C/[C@@H](OC)[C@@]2(O)C[C@H](OC(=O)N2)[C@@H](C)[C@@H]2O[C@@]12C)C(=O)CC[C@H]1C(=O)N[C@@H](Cc2ccc(O)cc2)C(=O)N[C@H](Cc2c[nH]c3ccccc23)C(=O)N[C@@H](CCCCN)C(=O)N[C@@H]([C@@H](C)O)C(=O)N[C@@H](Cc2ccccc2)C(=O)N1C [Conjugate 22]
H69 tumor DM-1 levels [1]: 145 nM

COc1cc2cc(c1Cl)N(C)C(=O)C[C@H](OC(=O)[C@H](C)N(C)C(=O)CCSSCCNC(=O)[C@@H](NC(=O)[C@@H]1CSSC[C@H](NC(=O)[C@H](N)Cc3ccccc3)C(=O)N[C@@H](Cc3ccc(O)cc3)C(=O)N[C@H](Cc3c[nH]c4ccccc34)C(=O)N[C@@H](CCCCN)C(=O)N[C@@H]([C@@H](C)O)C(=O)N1)[C@@H](C)O)[C@]1(C)O[C@H]1[C@H](C)[C@@H]1C[C@@](O)(NC(=O)O1)[C@H](OC)/C=C/C=C(\C)C2 [Conjugate 35]
H69 tumor DM-1 levels [1]: 23.2 nM

CCCCCCCCN[C@H](Cc1ccccc1)C(=O)N[C@H]1CSSC[C@@H](C(=O)N[C@H](C(=O)NCCSSCCC(=O)N(C)[C@@H](C)C(=O)O[C@H]2CC(=O)N(C)c3cc(cc(OC)c3Cl)C/C(C)=C/C=C/[C@@H](OC)[C@@]3(O)C[C@H](OC(=O)N3)[C@@H](C)[C@@H]3O[C@@]23C)[C@@H](C)O)NC(=O)[C@H]([C@@H](C)O)NC(=O)[C@H](CCCCN)NC(=O)[C@@H](Cc2c[nH]c3ccccc23)NC(=O)[C@H](Cc2ccc(O)cc2)NC1=O [Conjugate 55]
H69 tumor DM-1 levels [1]: 95.3 nM

COc1cc2cc(c1Cl)N(C)C(=O)C[C@H](OC(=O)[C@H](C)N(C)C(=O)CCSSCCCN[C@H](Cc1ccccc1)C(=O)N[C@H]1CSSC[C@@H](C(=O)N[C@H](CO)[C@@H](C)O)NC(=O)[C@H]([C@@H](C)O)NC(=O)[C@H](CCCCN)NC(=O)[C@@H](Cc3c[nH]c4ccccc34)NC(=O)[C@H](Cc3ccccc3)NC1=O)[C@]1(C)O[C@H]1[C@H](C)[C@@H]1C[C@@](O)(NC(=O)O1)[C@H](OC)/C=C/C=C(\C)C2 [Conjugate 76]
H69 tumor DM-1 levels [1]: 62.2 nM

COc1cc2cc(c1Cl)N(C)C(=O)C[C@H](OC(=O)[C@H](C)N(C)C(=O)CCSSCCCN[C@H](Cc1ccccc1)C(=O)N[C@H]1CSSC[C@@H](C(=O)N[C@@H](Cc3c[nH]c4ccccc34)C(N)=O)NC(=O)[C@H](C(C)C)NC(=O)[C@H](CCCCN)NC(=O)[C@@H](Cc3c[nH]c4ccccc34)NC(=O)[C@H](Cc3ccc(O)cc3)NC1=O)[C@]1(C)O[C@H]1[C@H](C)[C@@H]1C[C@@](O)(NC(=O)O1)[C@H](OC)/C=C/C=C(\C)C2 [Conjugate 78] (H-[N(3-sulfanylpropyl)dPhe](X1)CY[dW]KVCW-NH2; disulfide 2-7)
H69 tumor DM-1 levels [1]: 36.2 nM

COc1cc2cc(c1Cl)N(C)C(=O)C[C@H](OC(=O)[C@H](C)N(C)C(=O)CCSSCCCN[C@H](Cc1ccccc1)C(=O)N[C@H]1CSSC[C@@H](C(=O)N[C@H](C(=O)O)[C@@H](C)O)NC(=O)[C@H]([C@@H](C)O)NC(=O)[C@H](CCCCN)NC(=O)[C@@H](Cc3c[nH]c4ccccc34)NC(=O)[C@H](Cc3ccc(O)cc3)NC1=O)[C@]1(C)O[C@H]1[C@H](C)[C@@H]1C[C@@](O)(NC(=O)O1)[C@H](OC)/C=C/C=C(\C)C2 [Conjugate 80]
H69 tumor DM-1 levels [1]: 91.2 nM

COc1cc2cc(c1Cl)N(C)C(=O)C[C@H](OC(=O)[C@H](C)N(C)C(=O)CCSSCCOc1ccc(C[C@@H](N)C(=O)N[C@H]3CSSC[C@@H](C(=O)N[C@H](C(=O)O)[C@@H](C)O)NC(=O)[C@H]([C@@H](C)O)NC(=O)[C@H](CCCCN)NC(=O)[C@@H](Cc4c[nH]c5ccccc45)NC(=O)[C@H](Cc4ccc(O)cc4)NC3=O)cc1)[C@]1(C)O[C@H]1[C@H](C)[C@@H]1C[C@@](O)(NC(=O)O1)[C@H](OC)/C=C/C=C(\C)C2 [Conjugate 111]
H69 tumor DM-1 levels [1]: 82.6 nM

COc1cc2cc(c1Cl)N(C)C(=O)C[C@H](OC(=O)[C@H](C)N(C)C(=O)CCSSCCC(=O)NCc1ccc(C[C@@H](N)C(=O)N[C@H]3CSSC[C@@H](C(=O)N[C@H](C(=O)O)[C@@H](C)O)NC(=O)[C@H]([C@@H](C)O)NC(=O)[C@H](CCCCN)NC(=O)[C@@H](Cc4c[nH]c5ccccc45)NC(=O)[C@H](Cc4ccc(O)cc4)NC3=O)cc1)[C@]1(C)O[C@H]1[C@H](C)[C@@H]1C[C@@](O)(NC(=O)O1)[C@H](OC)/C=C/C=C(\C)C2 [Conjugate 115]
H69 tumor DM-1 levels [1]: 37.1 nM

COc1cc2cc(c1Cl)N(C)C(=O)C[C@H](OC(=O)[C@H](C)N(C)C(=O)CCS)C1(C)O[C@H]1[C@H](C)[C@@H]1C[C@@](O)(NC(=O)O1)[C@H](OC)/C=C/C=C(\C)C2 (stereo partly drawn) [DM-1, mertansine, reference compound]
IC50 ([2]; Homo sapiens, NCI-H524, read-out: H524 IC50 (nM)): 90 nM | IC50 ([2]; Homo sapiens, NCI-H524, read-out: H524 IC50+ 100 uM octreotide (nM)): 90 nM | concentration at 24 h [3]: 31.6 nM | AST and ALT [4]: dramatic increases in AST and ALT at day 5 | Day 5 weight change (%) [4]: −18% | WBC count [4]: dramatic decreases in WBC count | clinical outcome [4]: had to be euthanized on day 5 because they were moribund

Indium-111 pentetreotide [Octreoscan]
Ki [5]: > 10000 nM | Ki [6]: 182 nM | Ki [7]: > 1000 nM | Ki [8]: 237 nM | Ki [9]: 22 nM
